Source: patent publication US20230172936A1, “VCP/p97 INHIBITOR FOR THE TREATMENT OF CANCER” (Cleave Therapeutics, Inc., priority 2020, published 2023)

Experiments:
CTG-2704 = test: Ex-vivo cytotoxicity by Cell Titer Glo; assay type: cell-based; settings: Homo sapiens, 144 h; CTG-2704, 6 days
Protocol: (§1) Acute myelogenous leukemia (AML) is the most common acute leukemia in adults. A hematologic cancer, the disease is highly heterogeneous, with multiple subtypes. About 30% of AML cases harbor a FLT3/ITD mutation making the disease highly proliferative and more aggressive with a high risk of relapse.
(§2) Triplicate wells with media only and duplicate wells of vehicle (0.2% DMSO) were used as negative controls. […] To measure proliferation, untreated cells at days 0 and 6 were evaluated via Cell Titer Glo.
(§3) Protocol: • 1. AML cells were thawed and resuspended in enriched media composed of StemSpan™ Serum-Free Expansion Media (SFEM), 2% heat-inactivated FBS, StemSpan™ CC110 and recombinant human IL-3. • 2. 20,000 cells/well in 100 μL volume were plated on study day 0. • 3. […] Cells were incubated in the presence of drug for 6 days. • 5. On day 6, plates were removed from the incubator and equilibrated to room temperature for 20 minutes. 100 μL/well Cell Titer Glo was added to each well and incubated for 10 minutes before plate reading. • 6. Luminescence was recorded using Tecan Infinite M Plex plate reader.

CTG-2701 = test: Ex-vivo cytotoxicity by Cell Titer Glo; assay type: cell-based; settings: Homo sapiens, 144 h; CTG-2701, 6 days
Protocol: as §1, §2, §3

CTG-2227 = test: Ex-vivo cytotoxicity by Cell Titer Glo; assay type: cell-based; settings: Homo sapiens, 144 h; CTG-2227, 6 days
Protocol: as §1, §2, §3

CTG-2240 = test: Ex-vivo cytotoxicity by Cell Titer Glo; assay type: cell-based; settings: Homo sapiens, 144 h; CTG-2240, 6 days
Protocol: as §1, §2, §3

CTG-3439 = test: Ex-vivo cytotoxicity by Cell Titer Glo; assay type: cell-based; settings: Homo sapiens, 144 h; CTG-3439, 6 days
Protocol: as §1, §2, §3

CTG-2456 = test: Ex-vivo cytotoxicity by Cell Titer Glo; assay type: cell-based; settings: Homo sapiens, 144 h; CTG-2456, 6 days
Protocol: as §1, §2, §3

CTG-2242 = test: Ex-vivo cytotoxicity by Cell Titer Glo; assay type: cell-based; settings: Homo sapiens, 144 h; CTG-2242, 6 days
Protocol: as §1, §2, §3

CTG-2243 = test: Ex-vivo cytotoxicity by Cell Titer Glo; assay type: cell-based; settings: Homo sapiens, 144 h; CTG-2243, 6 days
Protocol: as §1, §2, §3

CTG-2774 = test: Ex-vivo cytotoxicity by Cell Titer Glo; assay type: cell-based; settings: Homo sapiens, 144 h; CTG-2774, 6 days
Protocol: as §1, §2, §3

CTG-2232 = test: Ex-vivo cytotoxicity by Cell Titer Glo; assay type: cell-based; settings: Homo sapiens, 144 h; CTG-2232, 6 days
Protocol: as §1, §2, §3

CTG-2455 = test: Ex-vivo cytotoxicity by Cell Titer Glo; assay type: cell-based; settings: Homo sapiens, 144 h; CTG-2455, 6 days
Protocol: as §1, §2, §3

CTG-2453 = test: Ex-vivo cytotoxicity by Cell Titer Glo; assay type: cell-based; settings: Homo sapiens, 144 h; CTG-2453, 6 days
Protocol: as §1, §2, §3

HL-60 cell line = test: Combination treatments, Cell Titer-Glo viability after 72 hours; assay type: cell-based, human; settings: HL-60
Protocol: (§4) The additional therapeutic agents for this example were azacitidine (Cayman Chemical Cat No. 11164), decitabine (Sigma Cat No. A3656) and venetoclax (InvivoChem Cat. No. V0001).
(§5) Cell Culture: Three human acute myeloid leukemia tumor cell lines were used in this study: HL60, MV4;11 and MOLM-13. HL60 and MV4;11 were grown in IMDM base media with 20% and 10% FBS, respectively. MOLM-13 was grown in RPMI 1640 base media with 20% FBS. All culture media contained 2 mM glutamine, 100 units/mL sodium penicillin G, […] gentamicin, and 100 μg/mL streptomycin sulfate. The tumor cells were cultured in tissue culture flasks in a humidified incubator at 37° C., in an atmosphere of 5% C02 and 95% air. Assay: Tumor cells were seeded in duplicate in a volume of 100 μL/well of media into 96-well micro-culture plates at initial densities low enough to allow for several population doublings (typically three to five) during the indicated incubation period. After a 24 hour incubation, test agents were added to each well. After 72 hours of culture with test articles, cell viability was determined using the Cell Titer-Glo® (Promega G7571) assay. Briefly, Cell Titer-Glo® (Promega G7571) reagents were equilibrated at room temperature for 30 minutes; 100 μL per well was added at endpoint (72 hours). Plates were gently shaken for two minutes and then incubated at room temperature for ten minutes prior to reading luminescence on the BMG Clariostar Plus microplate reader.
(§6) An IC50 ratio for each combination was calculated from the ratio of the combination IC50 as compared to the applicable no fixed agent (vehicle) control.

MV4; 11 cell line = test: as above; assay type: cell-based, human; settings: MV4, 11
Protocol: as §4, §5, §6

MOML-13 cell line = test: as above; assay type: cell-based, human; settings: MOML-13
Protocol: as §4, §5, §6

[1] = Homo sapiens, 72 h, no fixed agent (vehicle), read-out: IC50
[2] = fixed agent Venetoclax+ Azacitidine - 20 nM

## Cc1cc2c(C(N)=O)cccc2n1-c1nc2c(c(NCc3ccccc3)n1)CCCN2 [Compound 1, 1-(4-(Benzylamino)-5,6,7,8-tetrahydropyrido[2,3-d]pyrimidin-2-yl)-2-methyl-1H-indole-4-carboxamide]
CTG-2704
  IC50: 666 nM
CTG-2701
  IC50: 395 nM
CTG-2227
  IC50: 274 nM
CTG-2240
  IC50: 500 nM
CTG-3439
  IC50: 691 nM
CTG-2456
  IC50: 212 nM
CTG-2242
  IC50: 501 nM
CTG-2243
  IC50: 460 nM
CTG-2774
  IC50: 327 nM
CTG-2232
  IC50: 275 nM
CTG-2455
  IC50: 220 nM
CTG-2453
  IC50: 307 nM
HL-60 cell line; fixed agent Azacitidine - 5750 nM
  Combination: Monotherapy IC50 Ratio: 1.02
HL-60 cell line; fixed agent Azacitidine - 9800 nM
  Combination: Monotherapy IC50 Ratio: 0.85
HL-60 cell line; fixed agent Decitabine - 175 nM
  Combination: Monotherapy IC50 Ratio: 0.96
HL-60 cell line; fixed agent Decitabine - 1700 nM
  Combination: Monotherapy IC50 Ratio: 1.06
HL-60 cell line; fixed agent Venetoclax+ Azacitidine - 85 nM
  Combination: Monotherapy IC50 Ratio: 0.84
HL-60 cell line; fixed agent Venetoclax+ Azacitidine - 475 nM
  Combination: Monotherapy IC50 Ratio: 0.84
HL-60 cell line; [1]
  IC50: 305 nM
MV4; 11 cell line; [1]
  IC50: 251 nM
MV4; 11 cell line; fixed agent Azacitidine - 500 nM
  Combination: Monotherapy IC50 Ratio: 0.46
MV4; 11 cell line; fixed agent Azacitidine - 3150 nM
  Combination: Monotherapy IC50 Ratio: 0.47
MV4; 11 cell line; fixed agent Decitabine - 30 nM
  Combination: Monotherapy IC50 Ratio: 0.47
MV4; 11 cell line; fixed agent Decitabine - 215 nM
  Combination: Monotherapy IC50 Ratio: 0.36
MV4; 11 cell line; [2]
  Combination: Monotherapy IC50 Ratio: 0.65
MV4; 11 cell line; fixed agent Venetoclax+ Azacitidine - 50 nM
  Combination: Monotherapy IC50 Ratio: 0.47
MOML-13 cell line; [1]
  IC50: 216 nM
MOML-13 cell line; fixed agent Azacitidine - 105 nM
  Combination: Monotherapy IC50 Ratio: 0.39
MOML-13 cell line; fixed agent Azacitidine - 850 nM
  Combination: Monotherapy IC50 Ratio: 0.39
MOML-13 cell line; fixed agent Decitabine - 2.5 nM
  Combination: Monotherapy IC50 Ratio: 0.56
MOML-13 cell line; fixed agent Decitabine - 8.5 nM
  Combination: Monotherapy IC50 Ratio: 0.30
MOML-13 cell line; fixed agent Venetoclax+ Azacitidine - 6.5 nM
  Combination: Monotherapy IC50 Ratio: 0.71
MOML-13 cell line; [2]
  Combination: Monotherapy IC50 Ratio: 0.52
